# Results reported in article PMC11079024, “Identification of a family of species-selective complex I inhibitors as potential anthelmintics” (Nature Communications, 2024).
# “And” between values parts separate entries of the source, which are not always exact repeats. Equal entries are not always repeated. Where two headings read alike, the source gives them in different places.
# Tests used:
# [1] = biological target: C. briggsae complex I (Caenorhabditis briggsae, UniProt A8X476+A8XFG2+Q8HEC4); experiment: In vitro complex I activity assay, C. briggsae mitochondria; type: biochemical; conditions: for remaining activity at 0.0001 µM / remaining activity at 0.0005 µM / remaining activity at 0.001 µM / remaining activity at 0.0025 µM / remaining activity at 0.005 µM / remaining activity at 0.013 µM / remaining activity at 0.025 µM / remaining activity at 0.063 µM / remaining activity at 0.125 µM / remaining activity at 0.313 µM / remaining activity at 0.625 µM / remaining activity at 1.5 µM / remaining activity at 3 µM / remaining activity at 15 µM / remaining activity at 37.5 µM / remaining activity at 75 µM / remaining activity at 0.06 µM / remaining activity at 0.13 µM: C. briggsae mitochondria, read-out: in vitro complex I activity relative to solvent control; for IC50: purified mitochondria
# Sequence of C. briggsae complex I (A8X476 31-482): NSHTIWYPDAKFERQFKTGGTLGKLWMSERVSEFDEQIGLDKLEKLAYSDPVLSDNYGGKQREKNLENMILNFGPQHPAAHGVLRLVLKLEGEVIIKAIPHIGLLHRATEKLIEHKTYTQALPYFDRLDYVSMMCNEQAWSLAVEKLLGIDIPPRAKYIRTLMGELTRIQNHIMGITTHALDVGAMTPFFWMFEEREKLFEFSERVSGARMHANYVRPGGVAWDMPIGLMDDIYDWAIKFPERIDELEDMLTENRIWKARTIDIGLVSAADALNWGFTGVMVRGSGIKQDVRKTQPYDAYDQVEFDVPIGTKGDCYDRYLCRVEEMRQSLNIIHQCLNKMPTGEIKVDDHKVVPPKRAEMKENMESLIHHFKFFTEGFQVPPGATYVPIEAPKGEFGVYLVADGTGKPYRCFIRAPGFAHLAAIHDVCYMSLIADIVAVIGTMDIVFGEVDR
# Sequence of C. briggsae complex I (A8XFG2 17-199): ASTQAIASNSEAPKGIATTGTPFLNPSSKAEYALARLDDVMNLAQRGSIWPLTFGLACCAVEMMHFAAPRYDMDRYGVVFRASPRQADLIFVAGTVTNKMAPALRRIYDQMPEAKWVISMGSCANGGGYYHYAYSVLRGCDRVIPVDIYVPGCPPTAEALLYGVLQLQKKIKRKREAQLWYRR
# Sequence of C. briggsae complex I (Q8HEC4 whole entry): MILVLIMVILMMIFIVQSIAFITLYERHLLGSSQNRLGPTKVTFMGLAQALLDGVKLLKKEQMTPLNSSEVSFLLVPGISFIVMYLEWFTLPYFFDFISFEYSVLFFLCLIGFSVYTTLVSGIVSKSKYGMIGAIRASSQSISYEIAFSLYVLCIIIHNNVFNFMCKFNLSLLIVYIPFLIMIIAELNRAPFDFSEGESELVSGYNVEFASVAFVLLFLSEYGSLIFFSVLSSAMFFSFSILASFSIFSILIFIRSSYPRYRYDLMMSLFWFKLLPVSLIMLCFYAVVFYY
# Protocol: Mitochondria were isolated from the following free-living nematode strains: C. elegans—N2, CB3474, ECA882, ECA917, ECA1075, ECA1080; C. briggsae—AF16; P. pacificus—PS312; and P. hermaphrodita—B178. With the exception of the P. hermaphrodita strain B178, adult worms of each strain were grown in bulk through liquid culture to obtain mitochondria in sufficient quantities. Due to poor growth in liquid media, mixed stage populations of P. hermaphrodita were washed off and collected from NGM plates seeded with OP50. The isolation of mitochondria from all free-living nematode strains followed the protocol previously outlined in Burns et al.[24]. In brief, a 1 L saturated culture of E. coli HB101 was concentrated 20-fold in 50 mL complete S-medium. ~500,000 L1 worms synchronized from an embryo preparation performed the day prior were added to the S-media/HB101 suspension and grown to adulthood over the course of 3.5 days at 20 °C with shaking at 165 rpm. Following growth, worms were collected in 10 ×15 mL conical tubes and washed 7 times in M9 buffer. Worm suspensions were then combined into a single 15 mL conical tube and diluted to a final volume of 15 mL with M9 buffer. 1 mL aliquots of worm suspension were then distributed to 15 × 1.5 mL screw-cap microcentrifuge tubes and were pelleted at 500 g for 1 min. Excess M9 was aspirated without disturbing the worm pellet. 600 μL ice-cold isolate buffer A (250 mM sucrose, 10 mM Tris (pH 7.5), 1 mM EDTA, 1 mM PMSF (freshly prepared)) and 300 μL cold glass beads were then added to each tube. Tubes were incubated on ice for 10 min, and the worms were then lysed by bead beating (6 x 30 s, with 1 min cooling intervals). Tubes containing worm lysate were centrifuged at 1,000 g for 10 min at 4 °C and the supernatant was transferred to 15 new microcentrifuge tubes on ice. The tubes were centrifuged a second time at 1,000 g for 10 min at 4 °C and the supernatant was once again transferred to 15 new microcentrifuge tubes on ice. These tubes were then centrifuged at 16,000 g for 10 min at 4 °C. The resulting mitochondrial pellet was washed twice by re-suspension in 300 μL of ice-cold isolate buffer B (250 mM sucrose, 10 mM Tris (pH 7.5), 1 mM EDTA). Following the final wash, isolation buffer was aspirated from each tube and the pellets were flash-frozen in ethanol/dry ice and stored at −80 °C until needed.
# The enzymatic activities of individual ETC complexes (I-IV) were assessed spectrophotometrically in isolated mitochondria using a Varioskan LUX Multimode plate reader (ThermoFisher Scientific). Mitochondrial pellets previously isolated were thawed on ice and resuspended in ice-cold isolation buffer (250 mM sucrose, 10 mM Tris (pH 7.5), 1 mM EDTA). The BCA assay (Walker, 1994) was used to quantify the protein concentration of mitochondria suspensions; solutions were diluted to a concentration of 0.2 mg/mL for use in all assays. For the complex I assay, mitochondria pellets were freeze-thawed on ice three times to increase enzyme accessibility. […] 20 μL mitochondria suspension was then added/mixed with a pipette to initiate the reaction. Immediately following the addition of mitochondria, absorbance was measured (complex I and II: 600 nm; complex III and IV: 550 nm) in 30 s intervals over 15 min. Enzymatic activity was determined in each reaction by plotting absorbance versus time and calculating the slope of the curve during the initial linear phase of the reaction. […] Percent activity of each complex was calculated by dividing the enzyme-specific activity of each well by the enzyme-specific activity of the corresponding solvent controls.
# Chemical solutions were prepared in complex I assay buffer composed of 25 mM KPi buffer (pH 7.5), 3 mg/mL bovine serum albumin (BSA), 80 μM NADH, 60 μM decylubiquinone, 160 μM DCIP, 2 μM antimycin A and 2 mM KCN.
# For preliminary screens of hit compounds, compounds were screened at 100 μM; data are the average of at least three biological replicates.
# [2] = system: H. polygyrus; experiment: In vivo efficacy study in H. polygyrus mouse model; design: species or system NMRI mice infected with H. polygyrus; conditions: for # Mice cured/ # Mice investigated: assessed 1 week after dosing; for Median # of living H. polygyrus worms: median (MAD) of adults collected from intestine; for Live worms in intestine (individual mouse) / Live worms in intestine, Median (+/- MAD): worm burden one week after dose; for Live worms in intestine (individual mouse): Mouse 1-4, 200 mg/kg; for Live worms in intestine, Median (+/- MAD): three to four mice
# Protocol: For in vivo testing, female 3-week old NMRI mice were purchased from Charles River, Germany. The mice were kept in individually ventilated cages (IVC) under environmentally controlled conditions (temperature: 22 °C ± 2 °C; relative humidity: 55% ± 15%; artificial lighting with a circadian cycle of 12 h of light) and had free access to water (municipal tap water supply) and rodent food. Rodents were allowed to acclimatize to the new environment for 1 week before infection. Upon 2 days of arrival, dexamethasone (0.25 mg/L) (Sigma-Aldrich, Switzerland) was added to the normal drinking water for immunosuppression to enable parasite establishment. After 1 week, mice were orally infected with 100 H. polygyrus third larval stage (L3) in 150 µL water.
# Four benzimidazole derivatives were tested for in vivo efficacy. The administration of dexamethasone was stopped after 12 days post-infection and 2 days later, the selected four benzimidazole derivatives were administered by oral gavage at a single dose of 200 mg/kg to groups of each four mice. Four mice were left untreated and served as a control group. The derivatives were prepared as a Tween80 (Sigma-Aldrich, Switzerland)/ethanol (Merck, Germany) mixture dissolved in tap water (7:3:90, v/v). After 6–7 days post-dosing, the mice were euthanized with CO2 and dissected. Adult worms were removed from the intestine and counted. The worm burden reduction was calculated by comparing the number of worms found in the control animals versus the treated animals.
# [3] = system: C. elegans; experiment: C. elegans chemical screens of RIKEN NPD libraries at 50 μM (hit identification in KCN survival and development/viability assays); type: cell-based, Caenorhabditis elegans; conditions: screened at 50 μM in triplicate; […]; KCN = KCN survival assay, Dev. & Viability = development/viability assay
# [4] = single oral dose 200 mg/kg, vs untreated control mice
# [5] = single oral dose of 200 mg/kg, median worm counts versus control mice
smiles,measurement,setting,value
Cc1ccccc1OCCCCn1cnc2ccccc21 [Compound 7732524],remaining activity at 0.0001 µM,[1]; Mean,92.8%
same,remaining activity at 0.0001 µM,[1]; single replicate,92.9%
same,remaining activity at 0.0005 µM,[1]; Mean,91%
same,remaining activity at 0.0005 µM,[1]; single replicate,90.7%
same,remaining activity at 0.001 µM,[1]; Mean,90.6%
same,remaining activity at 0.001 µM,[1]; single replicate,94.1%
same,remaining activity at 0.0025 µM,[1]; Mean,91.8%
same,remaining activity at 0.0025 µM,[1]; single replicate,95.4%
same,remaining activity at 0.005 µM,[1]; Mean,99.8%
same,remaining activity at 0.005 µM,[1]; single replicate,102%
same,remaining activity at 0.013 µM,[1]; Mean,86.4%
same,remaining activity at 0.013 µM,[1]; single replicate,91.2%
same,remaining activity at 0.025 µM,[1]; Mean,74.3%
same,remaining activity at 0.025 µM,[1]; single replicate,77.1%
same,remaining activity at 0.063 µM,[1]; Mean,43.5%
same,remaining activity at 0.063 µM,[1]; single replicate,44.1%
same,remaining activity at 0.125 µM,[1]; Mean,26.1%
same,remaining activity at 0.313 µM,[1]; Mean,7.94%
same,remaining activity at 0.625 µM,[1]; Mean,0.818%
same,remaining activity at 1.5 µM,[1]; Mean,1.29%
same,remaining activity at 3 µM,[1]; Mean,1.71%
same,remaining activity at 15 µM,[1]; Mean,1.4%
same,remaining activity at 37.5 µM,[1]; Mean,1.05%
same,remaining activity at 75 µM,[1]; Mean,0.358%
same,IC50,[1],60.3 nM
same,# Mice cured/ # Mice investigated,[2]; single oral dose 200 mg/kg,0/4
same,% Worm burden reduction,[2]; [4],24.6%
same,Median # of living H. polygyrus worms,[2]; single oral dose 200 mg/kg,93.5 (5.0)
same,% Worm burden reduction,[2]; [5],24.5968%
same,Live worms in intestine (individual mouse),[2]; single oral dose of 200 mg/kg,95 and 92 and 111 and 85
same,"Live worms in intestine, Median (+/- MAD)",[2]; single oral dose of 200 mg/kg,93.5 (5.0)
CC(C)Cc1ccc(C(C)c2nc3ccccc3n2C)cc1 (stereo not drawn) [NPD8790],remaining activity at 0.06 µM,[1]; Mean of replicates,103%
same,remaining activity at 0.06 µM,[1]; single replicate,95.7%
same,remaining activity at 0.13 µM,[1]; Mean of replicates,92%
same,remaining activity at 0.13 µM,[1]; single replicate,86.2%
same,remaining activity at 0.313 µM,[1]; Mean of replicates,85.6%
same,remaining activity at 0.313 µM,[1]; single replicate,76.1%
same,remaining activity at 0.625 µM,[1]; Mean of replicates,74.2%
same,remaining activity at 0.625 µM,[1]; single replicate,81.9%
same,remaining activity at 1.5 µM,[1]; Mean of replicates,61.1%
same,remaining activity at 1.5 µM,[1]; single replicate,70%
same,remaining activity at 3 µM,[1]; Mean of replicates,43.1%
same,remaining activity at 3 µM,[1]; single replicate,52.6%
same,remaining activity at 15 µM,[1]; Mean of replicates,16%
same,remaining activity at 37.5 µM,[1]; Mean of replicates,11.7%
same,remaining activity at 75 µM,[1]; Mean of replicates,9.21%
same,remaining activity at 0.0001 µM,[1]; Mean,91.5%
same,remaining activity at 0.0001 µM,[1]; single replicate,87.3%
same,remaining activity at 0.0005 µM,[1]; Mean,96.4%
same,remaining activity at 0.0005 µM,[1]; single replicate,99.9%
same,remaining activity at 0.001 µM,[1]; Mean,102%
same,remaining activity at 0.001 µM,[1]; single replicate,99.6%
same,remaining activity at 0.0025 µM,[1]; Mean,115%
same,remaining activity at 0.0025 µM,[1]; single replicate,108%
same,remaining activity at 0.005 µM,[1]; Mean,119%
same,remaining activity at 0.025 µM,[1]; Mean,109%
same,remaining activity at 0.063 µM,[1]; Mean,103%
same,remaining activity at 0.063 µM,[1]; single replicate,95.7%
same,remaining activity at 0.125 µM,[1]; Mean,92%
same,remaining activity at 0.125 µM,[1]; single replicate,86.2%
same,remaining activity at 0.313 µM,[1]; Mean,85.6%
same,remaining activity at 0.625 µM,[1]; Mean,74.2%
same,remaining activity at 1.5 µM,[1]; Mean,61.1%
same,remaining activity at 3 µM,[1]; Mean,43.1%
same,remaining activity at 15 µM,[1]; Mean,16%
same,remaining activity at 37.5 µM,[1]; Mean,11.7%
same,remaining activity at 75 µM,[1]; Mean,9.21%
same,IC50,[1],1600 nM
same,Hit Type,[3],KCN
same,# Mice cured/ # Mice investigated,[2]; single oral dose 200 mg/kg,0/4
same,% Worm burden reduction,[2]; [4],23.0%
same,Median # of living H. polygyrus worms,[2]; single oral dose 200 mg/kg,95.5 (4.0)
same,% Worm burden reduction,[2]; [5],22.9839%
same,Live worms in intestine (individual mouse),[2]; single oral dose of 200 mg/kg,93 and 52 and 101 and 98
same,"Live worms in intestine, Median (+/- MAD)",[2]; single oral dose of 200 mg/kg,95.5 (4.0)
